Assay results as given in PubChem BioAssay (NCI).
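A five-concentration, 48-hour dose response in 96-well plates underlies each endpoint, interpolated linearly between surrounding concentrations. The concentration for 50% growth inhibition is given as GI50. TGI marks complete inhibition of growth.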

Experiments:
Experiment in all cases: DTP human tumour cell line panel, 48 h
A549 NSCLC = tested on: A549 NSCLC
NCI/ADR-RES ovarian = tested on: NCI/ADR-RES ovarian
OVCAR-8 ovarian = tested on: OVCAR-8 ovarian
UACC-257 melanoma = tested on: UACC-257 melanoma
ACHN renal = tested on: ACHN renal
TK-10 renal = tested on: TK-10 renal
DU-145 prostate = tested on: DU-145 prostate
HT29 colon = tested on: HT29 colon
MALME-3M melanoma = tested on: MALME-3M melanoma
KM12 colon = tested on: KM12 colon

**Q.** `Cc1ccc(/C=C(/C#N)n2nnc3ncccc32)cc1` was tested. Which GI50 (A549 NSCLC) did it give?
**A.** 2.58 µM

**Q.** What about the TGI (A549 NSCLC) of the same compound?
**A.** 77.5 µM

**Q.** And the GI50 (NCI/ADR-RES ovarian)?
**A.** 1.37 µM

**Q.** What about the TGI (NCI/ADR-RES ovarian) of the same compound?
**A.** > 100 µM

**Q.** And the GI50 (OVCAR-8 ovarian)?
**A.** 3.16 µM

**Q.** What about the TGI (OVCAR-8 ovarian) of the same compound?
**A.** > 100 µM

**Q.** And the GI50 (UACC-257 melanoma)?
**A.** 4.24 µM

**Q.** And the TGI (UACC-257 melanoma)?
**A.** 22.2 µM

**Q.** And the GI50 (ACHN renal)?
**A.** 2.66 µM

**Q.** And the TGI (ACHN renal)?
**A.** 13.4 µM

**Q.** And the GI50 (TK-10 renal)?
**A.** 2.39 µM

**Q.** What about the TGI (TK-10 renal) of the same compound?
**A.** 9.22 µM

**Q.** And the GI50 (DU-145 prostate)?
**A.** 3.01 µM

**Q.** And the TGI (DU-145 prostate)?
**A.** 13.7 µM

**Q.** And the GI50 (HT29 colon)?
**A.** 2.08 µM

**Q.** What about the TGI (HT29 colon) of the same compound?
**A.** 11.5 µM

**Q.** What about the GI50 (MALME-3M melanoma) of the same compound?
**A.** 1.76 µM

**Q.** What about the TGI (MALME-3M melanoma) of the same compound?
**A.** 26 µM

**Q.** What about the GI50 (KM12 colon) of the same compound?
**A.** 2.11 µM

**Q.** And the TGI (KM12 colon)?
**A.** 14.9 µM

**Q.** Which TGI (A549 NSCLC) does the source give for `O=C1CC(C(=O)O)Cc2c(Br)ccc(O)c21` (stereo not drawn) here?
**A.** > 100 µM

**Q.** And the TGI (NCI/ADR-RES ovarian)?
**A.** > 100 µM

**Q.** And the TGI (OVCAR-8 ovarian)?
**A.** > 100 µM

**Q.** What about the TGI (UACC-257 melanoma) of the same compound?
**A.** > 100 µM

**Q.** And the TGI (ACHN renal)?
**A.** > 100 µM

**Q.** And the TGI (TK-10 renal)?
**A.** > 100 µM

**Q.** What about the TGI (DU-145 prostate) of the same compound?
**A.** > 100 µM

**Q.** And the TGI (HT29 colon)?
**A.** > 100 µM

**Q.** What about the TGI (MALME-3M melanoma) of the same compound?
**A.** > 100 µM

**Q.** What about the TGI (KM12 colon) of the same compound?
**A.** > 100 µM

**Q.** Which GI50 (A549 NSCLC) does the source give for `O=c1c2cccc(F)c2sc2c(NCCCNCCO)nc3ccccc3c12` here?
**A.** 1.13 µM

**Q.** What about the TGI (A549 NSCLC) of the same compound?
**A.** 3.08 µM

**Q.** And the GI50 (NCI/ADR-RES ovarian)?
**A.** 1.52 µM

**Q.** And the TGI (NCI/ADR-RES ovarian)?
**A.** 3.06 µM

**Q.** And the GI50 (UACC-257 melanoma)?
**A.** 2.03 µM

**Q.** And the TGI (UACC-257 melanoma)?
**A.** 3.99 µM

**Q.** What about the GI50 (ACHN renal) of the same compound?
**A.** 1.28 µM

**Q.** What about the TGI (ACHN renal) of the same compound?
**A.** 2.54 µM

**Q.** What about the GI50 (TK-10 renal) of the same compound?
**A.** 1.96 µM

**Q.** What about the TGI (TK-10 renal) of the same compound?
**A.** 3.57 µM

**Q.** And the GI50 (DU-145 prostate)?
**A.** 1.22 µM

**Q.** What about the TGI (DU-145 prostate) of the same compound?
**A.** 2.48 µM

**Q.** And the GI50 (HT29 colon)?
**A.** 1.51 µM

**Q.** What about the TGI (HT29 colon) of the same compound?
**A.** 3.25 µM

**Q.** What about the GI50 (MALME-3M melanoma) of the same compound?
**A.** 1.61 µM

**Q.** What about the TGI (MALME-3M melanoma) of the same compound?
**A.** 3.12 µM

**Q.** What about the GI50 (KM12 colon) of the same compound?
**A.** 1.61 µM

**Q.** And the TGI (KM12 colon)?
**A.** 3.04 µM

**Q.** How did the GI50 (A549 NSCLC) turn out when `NS(=O)(=O)c1ccc(N=Nc2c(O)[nH]c3ccc(C(=O)NCCc4cnc[nH]4)cc23)cc1` was run?
**A.** > 25 µM

**Q.** And the TGI (A549 NSCLC)?
**A.** > 25 µM

**Q.** What about the GI50 (NCI/ADR-RES ovarian) of the same compound?
**A.** > 25 µM

**Q.** What about the TGI (NCI/ADR-RES ovarian) of the same compound?
**A.** > 25 µM

**Q.** What about the GI50 (OVCAR-8 ovarian) of the same compound?
**A.** > 25 µM

**Q.** And the TGI (OVCAR-8 ovarian)?
**A.** > 25 µM

**Q.** And the GI50 (UACC-257 melanoma)?
**A.** > 25 µM

**Q.** And the TGI (UACC-257 melanoma)?
**A.** > 25 µM

**Q.** And the GI50 (ACHN renal)?
**A.** > 25 µM

**Q.** What about the TGI (ACHN renal) of the same compound?
**A.** > 25 µM

**Q.** What about the GI50 (TK-10 renal) of the same compound?
**A.** > 25 µM

**Q.** What about the TGI (TK-10 renal) of the same compound?
**A.** > 25 µM

**Q.** What about the GI50 (DU-145 prostate) of the same compound?
**A.** > 25 µM

**Q.** And the TGI (DU-145 prostate)?
**A.** > 25 µM

**Q.** What about the GI50 (HT29 colon) of the same compound?
**A.** > 25 µM

**Q.** And the TGI (HT29 colon)?
**A.** > 25 µM

**Q.** What about the GI50 (MALME-3M melanoma) of the same compound?
**A.** > 25 µM

**Q.** What about the TGI (MALME-3M melanoma) of the same compound?
**A.** > 25 µM

**Q.** What about the GI50 (KM12 colon) of the same compound?
**A.** > 25 µM

**Q.** And the TGI (KM12 colon)?
**A.** > 25 µM

**Q.** Which results are given for `O=C(COc1cccc(/C=C2\COc3ccccc3C2=O)c1)c1ccccc1`?
**A.** GI50 (A549 NSCLC): 15.7 µM; TGI (A549 NSCLC): 49.7 µM; GI50 (NCI/ADR-RES ovarian): 3.26 µM; TGI (NCI/ADR-RES ovarian): 11.8 µM; GI50 (OVCAR-8 ovarian): 3.35 µM; TGI (OVCAR-8 ovarian): 11.2 µM; GI50 (UACC-257 melanoma): 6.03 µM; TGI (UACC-257 melanoma): 18.6 µM; GI50 (ACHN renal): 2.14 µM; TGI (ACHN renal): 5.18 µM; GI50 (TK-10 renal): 3.6 µM; TGI (TK-10 renal): 11.2 µM; GI50 (DU-145 prostate): 6.11 µM; TGI (DU-145 prostate): 17.4 µM; GI50 (HT29 colon): 2.04 µM; TGI (HT29 colon): 4.5 µM; GI50 (MALME-3M melanoma): 13.1 µM; TGI (MALME-3M melanoma): 28.2 µM; GI50 (KM12 colon): 1.92 µM; TGI (KM12 colon): 3.65 µM

**Q.** Which GI50 (A549 NSCLC) does the source give for `O=C(/C=C/c1ccco1)Nc1ncc(Cc2cccc(C(F)(F)F)c2)s1` here?
**A.** 0.113 µM

**Q.** What about the TGI (A549 NSCLC) of the same compound?
**A.** > 36.4 µM

**Q.** What about the GI50 (NCI/ADR-RES ovarian) of the same compound?
**A.** 0.0422 µM

**Q.** What about the TGI (NCI/ADR-RES ovarian) of the same compound?
**A.** 1.66 µM

**Q.** What about the GI50 (OVCAR-8 ovarian) of the same compound?
**A.** 0.138 µM

**Q.** And the TGI (OVCAR-8 ovarian)?
**A.** > 37.7 µM

**Q.** And the GI50 (UACC-257 melanoma)?
**A.** 3.63 µM

**Q.** And the TGI (UACC-257 melanoma)?
**A.** > 100 µM

**Q.** What about the GI50 (ACHN renal) of the same compound?
**A.** 0.0647 µM

**Q.** And the TGI (ACHN renal)?
**A.** 3.66 µM

**Q.** What about the GI50 (TK-10 renal) of the same compound?
**A.** 0.779 µM

**Q.** What about the TGI (TK-10 renal) of the same compound?
**A.** 13.8 µM

**Q.** And the GI50 (DU-145 prostate)?
**A.** 0.103 µM

**Q.** And the TGI (DU-145 prostate)?
**A.** > 24.3 µM

**Q.** And the GI50 (HT29 colon)?
**A.** 0.0388 µM

**Q.** And the TGI (HT29 colon)?
**A.** > 33 µM

**Q.** And the GI50 (MALME-3M melanoma)?
**A.** 0.125 µM

**Q.** What about the TGI (MALME-3M melanoma) of the same compound?
**A.** 10.6 µM

**Q.** What about the GI50 (KM12 colon) of the same compound?
**A.** 0.0432 µM

**Q.** And the TGI (KM12 colon)?
**A.** > 31.8 µM
